Test results reported in paper PMC11851448, “Meliponini Geopropolis Extracts Induce ROS Production and Death in Leishmania amazonensis Promastigotes and Axenic Amastigotes In Vitro” (Biology, 2025).

Target: T1, LiARG (recombinant arginase from L. infantum) (Leishmania infantum, UniProt A4IB49)
T1 construct: gene LINJ_35_1490; recombinant, purified
Experiment: urea release, colorimetric UREA CE kit, […] nm
Format: biochemical

## O=c1c(O)c(-c2ccc(O)c(O)c2)oc2cc(O)cc(O)c12 [quercetin]
  IC50: 23.2 µM
